Data taken from ChEMBL document CHEMBL3988442, “University of Dundee, Small-Polar-MMV Screening Library” (2021).

Legend:
[1] = microbe, parasite or virus in culture; conditions: Mycobacterium tuberculosis, 96 h, read-out: pIC50 (converted)
[2] = microbe, parasite or virus in culture; conditions: Mycobacterium tuberculosis, 72 h, read-out: pIC50 (converted)

Compound | IC50 [1] | IC50 [2]
COC(=O)[C@H](C)NC(=O)c1noc2c1CCCCC2 | > 501 µM | 238 µM
CCC(NC(=O)NCCCOC)C(C)C (configuration not stated) | > 501 µM | > 501 µM
CCCN(CCC)S(=O)(=O)N1CCC2(CC1)OCCO2 | > 501 µM | 149 µM
N#CCCSc1nnc(Cc2ccccc2F)o1 | > 50.1 µM | > 50.1 µM
Cc1ccc(C(=O)NCc2ccnc(N(C)C)c2)s1 | > 501 µM | 273 µM
Cc1cc(OCC(=O)NCc2ccccc2F)no1 | 118 µM | 73.3 µM
CCc1ccc(CN2CCOC(Cc3cccc(F)c3)C2)nc1 (configuration not stated) | 12.3 µM | 36.3 µM
O=C(Cn1cnnn1)NCC1(c2ccccc2)CCC1 | > 501 µM | 304 µM
CC(C)N(C)S(=O)(=O)N(C)Cc1ccc(Br)o1 | 394 µM | 204 µM
CCC(C)NC(=O)c1cc(F)cc(F)c1 (configuration not stated) | 229 µM | 130 µM
COc1cc(Oc2ncccc2C(F)(F)F)ccc1CN1CCCC1 | 21 µM | > 50.1 µM
COc1c(Cl)cc(NC(=O)C2COCCN2)cc1Cl (configuration not stated) | > 501 µM | 200 µM
Cc1cccc(C(=O)NCc2cccc(O)c2)n1 | 489 µM | 172 µM
CC(C)CCN1Cc2c(C(=O)O)ncn2-c2ccccc2S1(=O)=O | > 50.1 µM | > 50.1 µM
COc1ccc(C(=O)CCN(C)C)cc1 | 294 µM | 114 µM
COC(=O)[C@@H]1C[C@@H](O)CN1Cc1ncc(C(C)(C)C)o1 | > 501 µM | > 501 µM
CCNC(=O)NCC(C)Oc1cccc(OC)c1 (configuration not stated) | 301 µM | 254 µM
CC(=O)c1cc(C(=O)NCCSC(F)(F)F)[nH]n1 | 79.5 µM | 274 µM
C=C(C)Cn1c(S(C)(=O)=O)nc2ccccc21 | > 501 µM | 135 µM
CN(C)S(=O)(=O)c1ccc(COC(=O)C2CC2)o1 | 338 µM | > 501 µM
CCn1cncc1CNc1ccc(-c2nc(CC(C)C)no2)cn1 | 5.92 µM | > 50.1 µM
COc1c(CNCCS(C)(=O)=O)c(C(C)C)nn1C | > 501 µM | > 501 µM
COc1coc(CN2CCCC(CCc3ccc(F)c(F)c3)C2)cc1=O (configuration not stated) | 14.3 µM | > 50.1 µM
CCc1cc(C)c(C(=O)Nc2ccc(C(N)=O)nc2)o1 | 69.6 µM | 56.5 µM
CCN(CC)C(=O)CN1CCC2(C=Cc3cc(Cl)c(C)cc3O2)CC1 | > 50.1 µM | 31.4 µM
CCOC(C)c1nc(Cn2cccn2)cs1 (configuration not stated) | > 50.1 µM | > 50.1 µM

Compound | IC50 [1] | IC50 [2]
NCc1cnn(-c2cccc(Cl)c2)c1 | 260 µM | 258 µM
CCS(=O)(=O)NCC(N)c1ccc(C(C)C)cc1 (configuration not stated) | 211 µM | 85.8 µM
NCc1nc(-c2ccc(F)cc2)c[nH]1 | > 501 µM | 222 µM
CCN1CCN(C(=O)C2CCCOC2)c2ccccc21 (configuration not stated) | 276 µM | 158 µM
CNC(=O)c1ccc(Cl)c(S(=O)(=O)N2CCCCC2)c1 | > 501 µM | > 501 µM
COC(=O)c1cccc(OCC(O)C(F)(F)F)c1 (configuration not stated) | > 501 µM | > 501 µM
O=C(NCC1(CO)CC1)OCc1ccccc1 | 149 µM | 149 µM
c1ccc(CN2CCCN(c3ccccn3)CC2)nc1 | 236 µM | 196 µM
CC(C1CC1)N(C)Cc1nnc(-c2ccc(Br)s2)o1 (configuration not stated) | 42.1 µM | 2.95 µM
CCOCCOc1cc(C)ccc1CN | > 501 µM | 208 µM
CC(c1ccccc1)N(C)C(=O)CN1CCCc2cccc(F)c21 (configuration not stated) | > 50.1 µM | 31.2 µM
CS(=O)(=O)NC(c1ccc(F)cc1)c1cccnc1 (configuration not stated) | > 501 µM | 338 µM
FC(F)(F)c1ccc(OC2CCNCC2)nc1 | 230 µM | 189 µM
CCNCC(O)COc1ccc(C)cc1OC (configuration not stated) | 10.5 µM | 218 µM
CC(C)c1cc(N(C)Cc2noc(C3CCCC3)n2)n2nccc2n1 | 15.5 µM | 9.63 µM
Cc1cc(CN(C)Cc2csc(-c3ccc(C(C)C)cc3)n2)no1 | 37.9 µM | > 50.1 µM
OCc1cnc2c(F)cccc2c1 | > 501 µM | > 501 µM
CCS(=O)(=O)NCCSc1nc2cc(F)c(F)cc2[nH]1 | 448 µM | 468 µM
N[C@@H]1CC[C@H](C(=O)NCCOCc2ccccc2)C1 | 267 µM | 226 µM
Cc1ccc2[nH]c(C(=O)N3CCN(C)CC3)cc2c1 | 316 µM | 384 µM
Nc1nccnc1C(=O)NCc1ccccc1 | > 501 µM | 294 µM
CN(C)S(=O)(=O)NC(c1ccccc1)c1ccccc1 | > 501 µM | 195 µM
COc1ccc2c(c1)CCN2C(=O)C(C)(C)C#N | 293 µM | 156 µM
COc1ccnc(NCc2ccc(CO)c(F)c2)n1 | > 501 µM | > 501 µM
Clc1cccc2nc(N3CCNCC3)oc12 | 349 µM | 144 µM
CCS(=O)(=O)N(C)CCCNc1ccc(C)c(C#N)n1 | 84.2 µM | 106 µM

Compound | IC50 [1] | IC50 [2]
COc1ccc(C(=O)N(C)CCn2cccn2)cc1 | > 501 µM | > 501 µM
Cc1cccc(CN2CCCC3(CCN(C4CCSCC4)C3)C2=O)c1 (configuration not stated) | 15.8 µM | 10 µM
CC(=O)c1cccc(OCC(=O)NC2CCCC2)c1 | 182 µM | 290 µM
CS(=O)(=O)NCC(=O)Nc1ccc(-n2cccn2)cc1 | > 501 µM | > 501 µM
Cc1ccc(NC(=O)Cn2ccnc2)cc1 | 171 µM | 159 µM
Nc1nccnc1C(=O)NCc1cc(Br)cs1 | 132 µM | 93.5 µM
O=C1N(Cc2ccc(F)c(F)c2)CCCC12CCN(C1CCCCC1)C2 (configuration not stated) | 26.3 µM | 15.1 µM
Cc1cnn(C2CCCN(C(=O)c3ccnc(N(C)C)c3)C2)c1 (configuration not stated) | > 50.1 µM | > 50.1 µM
CCOC(=O)C1CCCN(C(=O)c2onc(C)c2Cl)C1 (configuration not stated) | 303 µM | 232 µM
O=C(COCC1CC1)Nc1cc(S(=O)(=O)NC2CC2)ccc1F | > 50.1 µM | 45.8 µM
NCc1cc(Oc2cccc(F)c2)ccn1 | > 501 µM | 45.4 µM
CSc1cncc(NCCC(=O)N2CCCC2)n1 | > 501 µM | 336 µM
COc1ccccc1OC(C)CN (configuration not stated) | 61.1 µM | 20.2 µM
CC(CNC(=O)Cn1cccn1)Sc1ccccc1 (configuration not stated) | 121 µM | 135 µM
Cc1ccn(-c2ccc(NCc3ccccc3F)nn2)n1 | 7.29 µM | 32.8 µM
COc1cccc(CNCCNc2cccc(C)n2)c1 | > 501 µM | 248 µM
CCCc1cc(C(=O)NCC2COCCO2)cs1 (configuration not stated) | 124 µM | > 501 µM
CN(Cc1ccc(Br)s1)CC(O)COCCO (configuration not stated) | 165 µM | 236 µM
CCCOc1ccc(CNC(=O)c2cc[nH]n2)cn1 | > 501 µM | 114 µM
CN(C)C(=O)CN1CCCC1c1ccc(F)cc1 (configuration not stated) | 143 µM | 96.3 µM
CCCc1nnc(NCc2ccc(C)cn2)o1 | 212 µM | 138 µM
O=C(c1ccno1)N1CCOC[C@H](Oc2ccc(C(F)(F)F)cc2)C1 | > 50.1 µM | > 50.1 µM
CCOc1ccc(C(=O)Nc2ccnc(C)c2)cn1 | > 501 µM | 279 µM
NCc1n[nH]c(-c2ccc(Br)cc2)n1 | > 50.1 µM | 24.3 µM
